This series is described as follows: Partition coefficient octanol/water of Antide. The conditions noted are these: 24 hours stirring at room temperature, RP-HPLC. Type of series: physicochemical. The method, then:
Partition coefficient: it was determined using octanol as organic phase and water as hydrophilic phase. The two phases were first saturated with each other for 24 hours at room temperature. Antide was then dissolved in the water phase at a concentration well below saturation. An equal volume of organic phase was subsequently added to the water phase and the mixture was kept under stirring for 24 hours at room temperature. Antide concentration in the two phases was determined by RP-HPLC and the partition coefficient was obtained from the ratio between the drug concentration in organic and water phase.
The resulting octanol/water coefficient was 8.56·10^−2

On to “N—Ac-D-2-NaI, D-pCiPhe, D-3-Pal, Ser, NicLys, D-NicLys, Leu, Ilys, Pro, D-Ala, NH2 [Antide]”, for which the octanol/water coefficient was 8.56·10^−2.

(Values after patent publication US7704525B2, “Lipid microparticles by cryogenic micronization” (Ares Trading S.A., priority 2000, dated 2010).)
